This passage reports GI50 and TGI results from PubChem BioAssay (NCI).

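1) Cells in 96-well plates. 2) Compound, 48 h, 5 concentrations. 3) Linear interpolation between surrounding doses. 4) Unreached endpoint = highest concentration. Here, GI50 denotes the concentration required for 50% inhibition of growth. TGI marks complete inhibition of growth.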

Experiment in all cases: DTP human tumour cell line panel, 48 h
The test system of assay [1] is HOP-62 NSCLC.
For assay [2], the system named is NCI-H522 lung.
Assay [3] deals with HS 578T breast.
The test system of assay [4] is KM12 colon.
Assay [5] concerns SK-MEL-2 melanoma.
Assay [6] relates to ACHN renal.
Assay [7] relates to UO-31 renal.
In assay [8] the test system is SNB-19 CNS.
Assay [9] deals with 786-0 renal.
Assay [10] deals with SK-MEL-28 melanoma.

As for `O=C(c1cccs1)c1c(C(F)(F)F)n([O-])c2ccccc2[n+]1=O`, the GI50 in assay [1] is 0.376 µM; in assay [2] it was 0.125 µM; in assay [3], 1.03 µM; in assay [4], 1.12 µM; in assay [5], 2.21 µM; in assay [6] it was 0.417 µM. Moreover, the GI50 in assay [7] is 0.0775 µM; in [8] it was 5.67 µM; in assay [9], 0.521 µM; in [10] it was 5.59 µM. Also, the TGI in assay [1] came out at 1.24 µM; in assay [2] it was 1.54 µM; in assay [3] it was 2.91 µM; in [4], 3.07 µM; in assay [5] it was 10.5 µM; in [6], 1.09 µM. The TGI in assay [7] is 6.08 µM; in assay [8], 13.2 µM; in assay [9] it was 1.45 µM; in assay [10] it was 14.5 µM.
`COc1cc(C(=O)NC2c3ccccc3-c3ccccc32)c(N)cc1OCc1ccccc1`: the GI50 in [1] is 10.6 µM; in assay [2] it was 34.7 µM; in [3], 14.5 µM; in [4], > 100 µM; in [5] it was 33.7 µM; in assay [6], 23 µM. For the same compound, the GI50 in [7] is 30.2 µM; in [8], 22.6 µM; in assay [9], 21.4 µM; in [10], 25.2 µM. The TGI was 38.4 µM in assay [1]; > 100 µM in assay [2]; 79.1 µM in assay [3]; > 100 µM in [4]; 98.9 µM in assay [5]; > 92.3 µM in assay [6]. For the same compound, the TGI in assay [7] is > 100 µM; in [8], 58 µM; in assay [9], > 60.8 µM; in assay [10], > 92.7 µM.
Turning to `NC(N)=N/N=C(/c1ccccc1)c1ccc(F)cc1`, the GI50 is 0.85 µM in [1]; 0.267 µM in assay [2]; 0.452 µM in [3]; 0.32 µM in assay [4]; 0.429 µM in assay [5]; 0.75 µM in assay [6]. For the same compound, the GI50 was 0.991 µM in [7], 0.476 µM in [8], 0.638 µM in assay [9] and 0.528 µM in assay [10]. Further, the TGI was 13.1 µM in assay [1]; 1.45 µM in [2]; 27.7 µM in assay [3]; 7.5 µM in [4]; 11.3 µM in assay [5]; 16.4 µM in [6]. The TGI in [7] stood at 14.6 µM; in assay [8], 19.5 µM; in [9], 13.9 µM; in assay [10], 23 µM.
With `COc1c(C2CC(=O)Nc3c2cnn3Cc2ccco2)cc2c(c1OC)OCO2` (centres undefined), the GI50 is 1.79 µM in assay [1]; 0.349 µM in assay [2]; 0.49 µM in assay [3]; 0.439 µM in [4]; 0.421 µM in assay [5]; 0.833 µM in [6]. The GI50 in [7] is 2.65 µM; in [8] it was > 100 µM; in [9], 0.917 µM. In addition, the TGI in [1] is > 100 µM; in assay [2] it was 3.24 µM; in [3] it was > 100 µM; in assay [4] it was > 100 µM; in [5] it was > 100 µM; in assay [6], > 100 µM. In addition, the TGI in assay [7], in assay [8], in assay [9] and in assay [10] was > 100 µM each time.
For `CCCCCCCCCCCCCC(=S)NCCCC[C@H](NC(=O)OCc1ccccc1)C(=O)Nc1ccccc1`, the GI50 in assay [1] is 16 µM; in assay [2], 2.84 µM; in assay [3], 4.31 µM; in assay [4], 4.33 µM; in assay [5], 3.48 µM; in assay [6], 3.15 µM. In addition, the GI50 in assay [7] was 2.39 µM; in [8], 4.27 µM; in assay [9], 5.43 µM; in [10], 7.99 µM. Besides, the TGI in [1] was > 100 µM; in assay [2], 31.2 µM; in [3], > 100 µM; in assay [4], > 100 µM; in assay [5] it was 26.9 µM; in assay [6], 19.7 µM. Besides, the TGI in assay [7], in assay [8], in assay [9] and in [10] was > 100 µM throughout.
As to `COc1ccc(C(=S)N2CCN(c3cccc(Cl)c3)CC2)cc1`, the GI50 in assay [1] is > 100 µM; in assay [2], 15.3 µM; in assay [3], > 100 µM; in assay [4], > 100 µM; in [5], > 100 µM; in [6], > 100 µM. Also, the GI50 in assay [7] is 43.3 µM; in assay [8], > 100 µM; in assay [9] it was > 100 µM; in [10], > 100 µM. For the same compound, the TGI in [1], in assay [2], in assay [3], in [4], in [5] and in assay [6] was > 100 µM each time. The TGI in assay [7], in assay [8], in assay [9] and in [10] was > 100 µM each time.
Turning to `Nc1n[nH]c2ccc([C@@H]3Nc4ccc5[nH]ncc5c4[C@H]4[C@H]5CCC(C5)[C@H]43)cc12`, the GI50 in [1] was 0.597 µM; in [2], 0.31 µM; in assay [3], 0.31 µM; in [4] it was 0.406 µM; in assay [5] it was 1.24 µM; in [6], 0.895 µM. In addition, the GI50 was 0.698 µM in assay [7], 0.515 µM in assay [8], 0.757 µM in [9] and 0.91 µM in assay [10]. Also, the TGI in assay [1] is > 74 µM; in assay [2], 3.57 µM; in assay [3], 12.7 µM; in [4] it was 10.8 µM; in assay [5], 40.8 µM; in assay [6], > 72 µM. Moreover, the TGI was 46.5 µM in assay [7], > 100 µM in assay [8], 33.8 µM in assay [9] and > 76.3 µM in assay [10].
